Measurements as given in patent publication US20240294545A1 (CSPC Zhongqi Pharmaceutical Technology (Shijiazhuang) Co., …, priority 2020, published 2024).

Experiments:
Type in all cases: biochemical
[1] = molecular target: ATM (Homo sapiens (Human), UniProt Q13315); assay: Caliper mobility shift assay for ATM; settings: read-out: IC50 of inhibitory activity on ATM kinase
Method: 1.2 Determination of the Inhibitory Activities of Compounds on ATM: Caliper Mobility Shift Assay for ATM
To a 96-well plate, 98 μL of DMSO and 2 μL of the 10 mM stock solution were added and mixed evenly so that the concentration of the solution was 200 μM.
Based on the inhibitory rates of the compound at different concentrations, IC50 was calculated according to the formula: Y=Bottom+(Top−Bottom)/(1+(IC50/X)^HillSlope).

[2] = molecular target: ATR (Homo sapiens (Human), UniProt Q13535); assay: Caliper mobility shift assay for ATR; settings: read-out: IC50 of kinase inhibitory activity, ATR
Method: 1.6 Determination of the Inhibitory Activity of Compounds on ATR: Caliper Mobility Shift Assay for ATR
• (1) Preparation of 1× kinase buffer and reaction termination solution • 1) 1× kinase buffer • 50 mM HEPES, pH 7.5 • 0.0015% Brij-35 • […] • 2) Reaction termination solution • 100 mM HEPES, pH 7.5 • 0.015% Brij-35 • 0.2% Coating Reagent #3 • 50 mM EDTA • (2) Preparation of test compound • 1) The compound was dissolved in DMSO to yield a stock solution. Before the assay, to a 96-well plate, 30 μL of a 10 mM stock solution was taken and added with 60 μL of DMSO. […]

[3] = molecular target: mTOR (Homo sapiens (Human), UniProt P42345); assay: LanceUltra kinase assay for mTOR; settings: read-out: IC50 of kinase inhibitory activity, mTOR
[4] = molecular target: DNA-PK (Homo sapiens (Human), UniProt P78527); assay: ADP-Glo kinase assay for DNA-PK; settings: read-out: IC50 of kinase inhibitory activity, DNA-PK
Method: 1.4 Determination of the Inhibitory Activities of Compounds on DNA-PK Kinase: ADP-Glo Kinase Assay
• (1) Preparation of 1× kinase buffer • 40 mM Tris, pH 7.5 • 0.0055% Brij-35 • 20 mM MgCl2 • 0.05 mM DTT • (2) Preparation of test compound • 1) The compound was dissolved in DMSO to yield a stock solution. Before the assay, the stock solution of the compound was diluted with DMSO to yield a 100× solution at a concentration that is 100 times a target concentration for assay. If the target concentration was […], the stock solution should be diluted to yield a 1 mM solution at this step. • 2) 100 μL of DMSO was added, respectively, into two blank wells in the same 96 well plate, corresponding to the total reaction control without compound and the blank control without enzyme. • 3) Preparation of test plate: 50 nL of the compound solution in each of the above wells was taken to a 384-well plate as a test plate. • (3) Kinase reaction • 1) DNA-PK kinase was dissolved in 1× kinase buffer to yield a 2× enzyme solution that is twice the final concentration. 2.5 μL of the 2× enzyme solution was taken to each well of the test plate. The blank control without enzyme was added with 2.5 μL of the 1× kinase buffer instead of the enzyme solution. […]

[5] = molecular target: PI3Kα (p110α/p85α) (Homo sapiens (Human), UniProt P42336); assay: ADP-Glo kinase assay for PI3Kα; settings: read-out: IC50 of kinase inhibitory activity, PI3K α
Method: (§1) 1.3 Determination of the Inhibitory Activities of Compounds on PI3Kα, PI3Kβ, PI3Kγ, and PI3Kδ Kinase: ADP-Glo Kinase Assay
(§2) Experimental procedures • (1) Preparation of 1× kinase buffer • 50 mM HEPES, pH 7.5 • 3 mM MgCl2 • 1 mM EGTA • 100 mM NaCl • 0.03% CHAPS • 2 mM DTT • (2) Preparation of test compound • 1) Dissolution and dilution of compound: • The compound was dissolved in DMSO to yield a stock solution. Before the assay, the stock solution of the compound was diluted with DMSO in a 384-well plate to yield a 100× solution at a concentration that is 100 times a target concentration for assay. • 50 μL of DMSO was added, respectively, into two blank wells in the same 384 well plate, corresponding to the total reaction control without compound and the blank control without enzyme. • 2) Preparation of test plate: 50 nL of the compound solution in each of the above wells was taken to a test plate. • (3) Kinase reaction • 1) PI3Kα, PI3Kβ, PI3Kγ, and PI3Kδ kinases were dissolved, respectively, in 1× kinase buffer to yield a 2× enzyme solution at a concentration that is twice the final concentration. 2.5 µL of the 2× enzyme solution was taken to each well of the test plate. The blank control without enzyme was added with 2.5 μL of the 1× kinase buffer instead of the enzyme solution. […]

[6] = molecular target: PI3Kβ (p110β); assay: ADP-Glo kinase assay for PI3Kβ; settings: read-out: IC50 of kinase inhibitory activity, PI3K β
Method: as §1, §2

[7] = molecular target: PI3Kγ (pp110gamma) (Homo sapiens (Human), UniProt P48736); assay: ADP-Glo kinase assay for PI3Kγ; settings: read-out: IC50 of kinase inhibitory activity, PI3K γ
Method: as §1, §2

[8] = molecular target: PI3Kδ (p110δ/p85δ) (Homo sapiens (Human), UniProt O00329); assay: ADP-Glo kinase assay for PI3Kδ; settings: read-out: IC50 of kinase inhibitory activity, PI3K δ
Method: as §1, §2

Chain of ATR (Q13535 whole entry): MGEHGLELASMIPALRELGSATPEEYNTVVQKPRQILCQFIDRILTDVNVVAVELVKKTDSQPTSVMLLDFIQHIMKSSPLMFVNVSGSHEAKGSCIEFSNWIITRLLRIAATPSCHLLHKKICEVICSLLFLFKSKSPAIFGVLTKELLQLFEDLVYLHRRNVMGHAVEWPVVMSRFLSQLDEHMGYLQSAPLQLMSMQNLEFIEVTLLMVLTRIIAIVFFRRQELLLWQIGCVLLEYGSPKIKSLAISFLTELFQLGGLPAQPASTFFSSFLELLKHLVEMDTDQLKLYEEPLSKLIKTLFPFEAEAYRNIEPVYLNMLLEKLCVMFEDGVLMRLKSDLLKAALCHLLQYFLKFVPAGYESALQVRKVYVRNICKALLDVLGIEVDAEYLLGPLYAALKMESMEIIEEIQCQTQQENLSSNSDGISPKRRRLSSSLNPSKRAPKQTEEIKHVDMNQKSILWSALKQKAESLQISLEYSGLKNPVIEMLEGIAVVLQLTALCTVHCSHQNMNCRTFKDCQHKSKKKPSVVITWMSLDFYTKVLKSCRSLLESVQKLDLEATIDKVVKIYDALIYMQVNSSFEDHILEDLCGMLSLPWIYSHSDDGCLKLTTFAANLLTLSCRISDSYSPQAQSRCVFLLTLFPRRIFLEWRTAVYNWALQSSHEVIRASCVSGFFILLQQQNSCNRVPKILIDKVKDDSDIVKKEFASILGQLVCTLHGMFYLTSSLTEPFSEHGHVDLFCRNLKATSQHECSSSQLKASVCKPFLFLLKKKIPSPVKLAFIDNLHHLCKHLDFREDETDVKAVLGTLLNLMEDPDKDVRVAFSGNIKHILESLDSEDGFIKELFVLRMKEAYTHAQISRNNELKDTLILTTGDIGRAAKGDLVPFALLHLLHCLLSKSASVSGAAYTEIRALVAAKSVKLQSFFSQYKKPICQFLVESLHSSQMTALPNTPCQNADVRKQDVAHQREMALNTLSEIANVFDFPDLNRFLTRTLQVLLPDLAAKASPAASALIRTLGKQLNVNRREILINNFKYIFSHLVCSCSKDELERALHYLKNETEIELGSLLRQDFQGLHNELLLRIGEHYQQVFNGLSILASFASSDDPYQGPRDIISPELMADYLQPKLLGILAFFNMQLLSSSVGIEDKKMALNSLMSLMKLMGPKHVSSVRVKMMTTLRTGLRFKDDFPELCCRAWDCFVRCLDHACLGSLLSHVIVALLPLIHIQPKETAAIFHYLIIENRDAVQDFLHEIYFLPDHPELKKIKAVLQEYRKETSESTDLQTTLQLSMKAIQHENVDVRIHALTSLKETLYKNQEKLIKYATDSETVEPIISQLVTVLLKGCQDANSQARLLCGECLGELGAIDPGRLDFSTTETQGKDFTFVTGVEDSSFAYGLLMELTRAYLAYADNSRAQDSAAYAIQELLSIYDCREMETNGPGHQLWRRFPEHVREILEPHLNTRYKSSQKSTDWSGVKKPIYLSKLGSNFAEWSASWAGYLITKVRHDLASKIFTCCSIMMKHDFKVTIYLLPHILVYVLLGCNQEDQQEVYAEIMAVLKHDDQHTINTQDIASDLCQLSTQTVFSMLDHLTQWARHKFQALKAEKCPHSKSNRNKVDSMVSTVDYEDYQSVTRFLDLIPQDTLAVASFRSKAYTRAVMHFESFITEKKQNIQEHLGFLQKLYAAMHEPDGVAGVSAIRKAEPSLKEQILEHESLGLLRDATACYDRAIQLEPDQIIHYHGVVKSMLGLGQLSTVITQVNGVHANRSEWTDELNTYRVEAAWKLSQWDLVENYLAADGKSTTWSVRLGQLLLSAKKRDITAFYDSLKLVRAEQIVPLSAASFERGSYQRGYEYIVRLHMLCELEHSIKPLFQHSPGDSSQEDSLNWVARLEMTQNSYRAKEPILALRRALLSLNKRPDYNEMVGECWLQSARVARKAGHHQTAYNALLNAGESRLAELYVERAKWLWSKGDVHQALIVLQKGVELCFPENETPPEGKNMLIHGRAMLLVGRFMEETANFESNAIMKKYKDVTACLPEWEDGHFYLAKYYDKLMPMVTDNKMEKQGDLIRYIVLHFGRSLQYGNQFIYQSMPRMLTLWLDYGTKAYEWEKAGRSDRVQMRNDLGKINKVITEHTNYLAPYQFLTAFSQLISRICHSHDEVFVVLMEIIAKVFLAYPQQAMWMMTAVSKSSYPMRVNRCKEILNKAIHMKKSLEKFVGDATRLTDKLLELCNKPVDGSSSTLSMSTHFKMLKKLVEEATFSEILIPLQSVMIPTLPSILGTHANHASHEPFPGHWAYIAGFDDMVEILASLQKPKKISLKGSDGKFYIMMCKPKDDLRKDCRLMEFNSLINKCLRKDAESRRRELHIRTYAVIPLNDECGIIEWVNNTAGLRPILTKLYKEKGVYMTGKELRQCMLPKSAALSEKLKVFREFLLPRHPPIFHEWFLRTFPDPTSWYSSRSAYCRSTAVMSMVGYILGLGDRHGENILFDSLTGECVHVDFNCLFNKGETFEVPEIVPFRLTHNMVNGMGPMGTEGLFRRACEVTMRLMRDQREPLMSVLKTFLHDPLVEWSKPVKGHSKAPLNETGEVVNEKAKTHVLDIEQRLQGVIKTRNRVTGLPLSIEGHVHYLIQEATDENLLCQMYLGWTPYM
Chain of ATR (Q8WXE1 whole entry partner): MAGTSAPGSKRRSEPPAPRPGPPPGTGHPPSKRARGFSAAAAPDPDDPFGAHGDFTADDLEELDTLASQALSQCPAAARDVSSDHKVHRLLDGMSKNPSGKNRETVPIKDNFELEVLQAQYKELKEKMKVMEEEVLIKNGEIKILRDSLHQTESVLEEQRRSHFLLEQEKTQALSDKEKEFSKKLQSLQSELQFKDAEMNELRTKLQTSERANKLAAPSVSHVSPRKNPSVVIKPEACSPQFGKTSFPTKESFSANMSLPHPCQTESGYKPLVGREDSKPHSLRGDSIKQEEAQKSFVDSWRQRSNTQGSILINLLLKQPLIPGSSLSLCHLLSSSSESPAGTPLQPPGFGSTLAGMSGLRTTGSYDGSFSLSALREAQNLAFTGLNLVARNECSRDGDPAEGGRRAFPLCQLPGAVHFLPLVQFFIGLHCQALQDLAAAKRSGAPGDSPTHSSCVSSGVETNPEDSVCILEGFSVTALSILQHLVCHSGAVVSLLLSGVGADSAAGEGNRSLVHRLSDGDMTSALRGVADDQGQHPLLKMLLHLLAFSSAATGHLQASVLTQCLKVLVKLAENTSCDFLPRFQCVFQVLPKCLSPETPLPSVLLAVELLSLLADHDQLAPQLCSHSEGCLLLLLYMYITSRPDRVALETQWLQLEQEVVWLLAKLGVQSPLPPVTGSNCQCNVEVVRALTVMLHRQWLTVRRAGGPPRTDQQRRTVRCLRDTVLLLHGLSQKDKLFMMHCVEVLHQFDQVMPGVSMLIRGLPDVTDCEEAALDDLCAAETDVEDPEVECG
Chain of PI3Kγ (pp110gamma) (P48736 whole entry): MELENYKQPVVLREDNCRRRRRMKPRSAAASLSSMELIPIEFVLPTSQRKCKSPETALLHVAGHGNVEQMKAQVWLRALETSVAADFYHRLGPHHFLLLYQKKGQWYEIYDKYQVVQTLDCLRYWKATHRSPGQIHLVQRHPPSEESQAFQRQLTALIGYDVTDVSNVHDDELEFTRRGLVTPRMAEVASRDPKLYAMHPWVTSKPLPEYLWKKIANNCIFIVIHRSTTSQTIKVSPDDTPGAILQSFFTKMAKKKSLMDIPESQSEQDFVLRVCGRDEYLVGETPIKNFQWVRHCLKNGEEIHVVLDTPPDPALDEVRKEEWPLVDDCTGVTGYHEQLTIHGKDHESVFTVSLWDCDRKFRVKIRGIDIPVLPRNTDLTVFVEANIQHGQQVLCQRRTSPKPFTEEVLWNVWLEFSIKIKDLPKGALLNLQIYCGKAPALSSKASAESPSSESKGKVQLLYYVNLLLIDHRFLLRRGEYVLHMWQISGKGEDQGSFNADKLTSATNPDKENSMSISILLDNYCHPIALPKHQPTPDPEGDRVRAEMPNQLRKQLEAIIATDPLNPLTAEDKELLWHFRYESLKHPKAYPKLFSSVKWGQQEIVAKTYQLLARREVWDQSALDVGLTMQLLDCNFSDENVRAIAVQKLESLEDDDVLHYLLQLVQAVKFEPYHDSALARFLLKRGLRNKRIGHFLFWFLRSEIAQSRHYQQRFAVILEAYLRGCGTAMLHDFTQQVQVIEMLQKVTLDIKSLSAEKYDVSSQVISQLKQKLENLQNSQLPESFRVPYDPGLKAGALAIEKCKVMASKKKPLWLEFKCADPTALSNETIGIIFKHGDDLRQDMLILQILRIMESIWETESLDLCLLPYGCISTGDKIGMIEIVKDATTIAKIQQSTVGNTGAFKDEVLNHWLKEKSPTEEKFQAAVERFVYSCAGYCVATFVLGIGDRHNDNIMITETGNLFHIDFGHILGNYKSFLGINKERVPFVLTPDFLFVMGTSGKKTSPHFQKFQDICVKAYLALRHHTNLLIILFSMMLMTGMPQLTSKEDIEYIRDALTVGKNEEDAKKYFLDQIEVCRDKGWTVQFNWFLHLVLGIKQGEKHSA

IC50 [1]: 0.52 nM | IC50 [2]: > 10 µM | IC50 [3]: 1280 nM | IC50 [4]: 852 nM | IC50 [5]: 6.28 µM | IC50 [6]: > 10 µM | IC50 [7]: > 10 µM | IC50 [8]: > 10 µM
Compound: CC[C@@H]1COc2c(-c3ccc(OCCCN4CCCCC4)nc3)c(F)cc3ncc4c(c23)n1c(=O)n4C [Example A-22, (R)-10-ethyl-6-fluoro-2-methyl-7-(6-(3-(piperidin-1-yl)propoxy)pyridin-3-yl)-9,10-dihydro-8-oxa-2,4,10a-triazanaphtho[2,1,8-cde]azulen-1(2H)-one]
